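Compound exposure: 48 hours, 5 concentrations, 96-well plates. The concentration for 50% growth inhibition is given as GI50.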 Calls of active or inactive are those of the source. Rule as the data show it: active = GI50 up to about 1.1 µM and inactive = higher.
Legend:
Experiment in all cases: DTP human tumour cell line panel, 48 h
SK-MEL-28 = tested on: SK-MEL-28
HL-60 = tested on: HL-60
DU-145 = tested on: DU-145
NCI-H460 = tested on: NCI-H460
HCC 2998 = tested on: HCC 2998
M14 = tested on: M14
HT-29 = tested on: HT-29
IGROV-1 = tested on: IGROV-1
HCT-116 = tested on: HCT-116
SW-620 = tested on: SW-620
OVCAR-8 = tested on: OVCAR-8
OVCAR-5 = tested on: OVCAR-5
NCI-H23 = tested on: NCI-H23
NCI-H226 = tested on: NCI-H226
TK-10 = tested on: TK-10
SK-MEL-5 = tested on: SK-MEL-5
NCI-H522 = tested on: NCI-H522
CCRF-CEM = tested on: CCRF-CEM
PC-3 = tested on: PC-3

Measured: GI50

N#C/C(=C/NC(=S)c1ccncc1)C(N)=O
inactive: SK-MEL-28 > 100 µM | HL-60 > 100 µM | DU-145 > 100 µM | NCI-H460 > 100 µM | HCC 2998 > 100 µM | M14 > 100 µM | HT-29 > 100 µM | IGROV-1 > 100 µM | HCT-116 > 100 µM | SW-620 > 100 µM | OVCAR-8 > 100 µM | OVCAR-5 > 100 µM | NCI-H23 > 100 µM | NCI-H226 > 100 µM | TK-10 > 100 µM | SK-MEL-5 > 100 µM

NS(=O)(=O)c1nnc(NC(=O)c2cccc([N+](=O)[O-])c2)s1
inactive: SK-MEL-28 > 100 µM | NCI-H522 > 100 µM | HL-60 > 100 µM | DU-145 > 100 µM | NCI-H460 > 100 µM | HCC 2998 > 100 µM | M14 > 100 µM | HCT-116 > 100 µM | SW-620 > 100 µM | OVCAR-8 > 100 µM | OVCAR-5 > 100 µM | NCI-H23 > 100 µM | NCI-H226 > 100 µM | TK-10 > 100 µM | SK-MEL-5 > 100 µM

CCC12CCCC(=O)N1C(CO)C(c1ccccc1)O2 (stereo not given)
inactive: SK-MEL-28 > 100 µM | NCI-H460 > 100 µM | CCRF-CEM > 100 µM | HT-29 > 100 µM | IGROV-1 > 100 µM | HCT-116 > 100 µM | SW-620 > 100 µM | OVCAR-8 > 100 µM | OVCAR-5 > 100 µM | NCI-H23 > 100 µM | TK-10 > 100 µM | SK-MEL-5 > 100 µM

CC(=O)/C(=C/N1C(=O)CC(=O)NC1=S)C(=O)Nc1ccccc1C
inactive: SK-MEL-28 58.6 µM | HL-60 49 µM | DU-145 97.3 µM | NCI-H460 39.2 µM | HCC 2998 29.4 µM | M14 76 µM | HT-29 23.5 µM | IGROV-1 91 µM | HCT-116 31.6 µM | SW-620 32.8 µM | OVCAR-8 > 100 µM | OVCAR-5 > 100 µM | NCI-H23 41.2 µM | NCI-H226 > 100 µM | TK-10 > 100 µM | SK-MEL-5 57.9 µM

O=C1C2CC=CCC2C(=O)N1n1c(Cc2ccccc2)n[nH]c1=O (stereo not given)
inactive: NCI-H522 > 100 µM | NCI-H460 > 100 µM | CCRF-CEM > 100 µM | HCC 2998 > 100 µM | M14 > 100 µM | HT-29 > 100 µM | IGROV-1 > 100 µM | HCT-116 > 100 µM | PC-3 > 100 µM | SW-620 > 100 µM | OVCAR-8 > 100 µM | OVCAR-5 > 100 µM | NCI-H23 > 100 µM | NCI-H226 > 100 µM | TK-10 > 100 µM | SK-MEL-5 > 100 µM

From ChEMBL document CHEMBL1201862, “PubChem BioAssay data set” (2004)
